PMC6083693, “Ligand-based pharmacophore model for the discovery of novel CXCR2 antagonists as anti-cancer metastatic agents” (Royal Society Open Science, 2018)
Read-outs that look alike come from different tables or passages of the source.

What was measured:
Format in all cases: cell-based
CXCR2 = molecular target: T1, CXCR2 (Homo sapiens, UniProt P25025); test: CXCR2 antagonistic activity assay (IL-8-induced intracellular calcium change, Fluo-4 AM, HEK293 cells stably expressing Gα16 and CXCR2); conditions: for CXCR2 antagonistic activity (in words): HEK293 cells expressing Gα16 and CXCR2
T1 construct: expressed in transfected cells; host or cells: HEK293 cells stably expressing Gα16 and CXCR2
T1 sequence (P25025 1-360): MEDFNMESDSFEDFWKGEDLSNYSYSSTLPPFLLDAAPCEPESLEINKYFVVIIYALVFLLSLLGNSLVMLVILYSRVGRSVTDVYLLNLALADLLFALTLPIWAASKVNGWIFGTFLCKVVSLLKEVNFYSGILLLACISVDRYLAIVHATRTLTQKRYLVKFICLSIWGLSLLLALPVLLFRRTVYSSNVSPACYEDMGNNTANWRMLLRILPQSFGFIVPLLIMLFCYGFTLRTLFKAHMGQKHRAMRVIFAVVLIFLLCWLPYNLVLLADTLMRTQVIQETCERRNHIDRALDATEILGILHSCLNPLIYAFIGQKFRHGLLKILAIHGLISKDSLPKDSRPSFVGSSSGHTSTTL
Protocol: Human embryonic kidney 293 (HEK293) cells stably expressing Gα16 and CXCR2 were seeded onto 96-well plates and incubated for 24 h. Cells were loaded with 2 µmol l^−1 Fluo-4 AM in Hank's balanced salt solution (HBSS, containing KCl 5.4 mmol l^−1, Na2HPO4 0.3 mmol l^−1, KH2PO4 0.4 mmol l^−1, NaHCO3 4.2 mmol l^−1, CaCl2 1.3 mmol l^−1, MgCl2 0.5 mmol l^−1, Mg2SO4 0.6 mmol l^−1, NaCl 137 mmol l^−1, BSA 5 g l^−1, glucose 5.6 mmol l^−1 and sulfinpyrazone 250 µmol l^−1, pH 7.4) at 37°C for 45 min. The excess dye was removed and 50 µl of HBSS containing test compounds was added. After incubation at room temperature for 10 min, 25 µl of HBSS containing IL-8 was dispensed into the well using a FlexStation II microplate reader (Molecular Devices, Sunnyvale, CA, USA), and intracellular calcium change was recorded with an excitation wavelength of 485 nm and an emission wavelength of 525 nm. The half maximal inhibitory concentrations (IC50) of compounds were determined with the […] PRISM software by constructing their dose–response curves.

NCI-H1299 cells [1] = test: Wound healing assay (cell migration); conditions: Homo sapiens; NCI-H1299, 50 µg ml^−1, 48 h treatment; read-out: cell migration inhibitory rate
Protocol: NCI-H1299 cells (5 × 10^5 cell well^−1) were seeded in a six-well tissue culture plate and grown to 90% confluence. After the medium was removed, a gap with constant width was created in the centre of the cell well by scratching the monolayer with a sterile yellow micropipette tip. […] The wound closure was monitored and photographed at 0, 12, 24, 36 and 48 h with the IMAGEPRO software. The cell migration inhibitory rate was calculated as % = [1 − (0 h wound area − 12, 24, 36 or 48 h wound area)/0 h wound area] × 100.
The wound area was calculated with the IMAGEPRO software.

NCI-H1299 cells [2] = test: Anti-proliferation assay (MTT); conditions: NCI-H1299, 0.1, 1, 10 and 100 µg ml^−1, 72 h
Protocol: NCI-H1299 cells (provided by Tumor Pharmacology and Endocrine Laboratory, College of Pharmaceutical Sciences, Zhe Jiang University) were seeded in 96-well plates at a density of 4000 cells well^−1. After 24 h of adherence, cells were incubated with medium alone or medium containing test compounds for 72 h. Four different concentrations (100, 10, 1 and 0.1 µg ml^−1) of both antagonists were used. Cell proliferation was determined by the thiazolyl blue tetrazolium bromide (MTT) assay. Growth inhibition was calculated as % = [1 − (A/B)] × 100, where A and B were the absorbance of treated and untreated cells, respectively.
The highly metastatic NCI-H1299 lung cancer cell line was selected for the following in vitro biological evaluation.

[3] = HEK293 cells expressing Gα16 and CXCR2, IL-8 stimulated calcium change, read-out: CXCR2 IC50

SMILES	IC50 (CXCR2; [3])	further results
CC(C)S(=O)(=O)c1c(Cl)ccc(Nc2nnc(-c3ccccc3)[nH]2)c1O [Compound 1e, 3-chloro-2-(isopropylsulfonyl)-6-((5-phenyl-4H-1,2,4-triazol-3-yl)amino)phenol]	–	IC50 (CXCR2): 14.8 µM; inhibition at 50 µg/mL (NCI-H1299 cells [1]): 72%; cytotoxicity (growth inhibition, MTT) (NCI-H1299 cells [2]): no cytotoxicity
CN(C)C(=O)c1cccc(Nc2nccc(Nc3ccccc3)n2)c1O [Compound 2, 2-hydroxy-N,N-dimethyl-3-((4-(phenylamino)pyrimidin-2-yl)amino)benzamide]	> 100 µM	CXCR2 antagonistic activity (in words) (CXCR2): loss of CXCR2 antagonistic activity
CN(C)C(=O)c1cccc(Nc2nn(Cc3ccccc3)c(=O)[nH]2)c1O [Compound 3, 3-((1-benzyl-5-oxo-4,5-dihydro-1H-1,2,4-triazol-3-yl)amino)-2-hydroxy-N,N-dimethylbenzamide]	> 100 µM	CXCR2 antagonistic activity (in words) (CXCR2): loss of CXCR2 antagonistic activity

Continued, in another order:

IC50 (CXCR2; [3])	SMILES	further results
76 µM	CN(C)C(=O)c1cccc(Nc2nnc(-c3ccccc3)[nH]2)c1O [Compound 1a, 2-hydroxy-N,N-dimethyl-3-((5-phenyl-4H-1,2,4-triazol-3-yl)amino)benzamide]	–
18.5 µM	N#Cc1ccc(Nc2nnc(-c3ccccc3)[nH]2)c(O)c1 [Compound 1b, 3-hydroxy-4-((5-phenyl-4H-1,2,4-triazol-3-yl)amino)benzonitrile]	–
25.4 µM	N#Cc1ccc(Nc2nnc(-c3ccccc3Br)[nH]2)c(O)c1 [Compound 1c, 4-((5-(2-bromophenyl)-4H-1,2,4-triazol-3-yl)amino)-3-hydroxybenzonitrile]	–
> 100 µM	N#Cc1ccc(Nc2nnc(-c3ccc(C(F)(F)F)cc3)[nH]2)c(O)c1 [Compound 1d, 3-hydroxy-4-((5-(4-(trifluoromethyl)phenyl)-4H-1,2,4-triazol-3-yl)amino)benzonitrile]	–
